Measured values as given in ChEMBL document CHEMBL6092203, “Discovery of Novel PROTAC-Based HPK1 Degraders with High Potency and Selectivity for Cancer Immunotherapy” (J Med Chem, 2024).

What was measured:
[1] = in vitro; conditions: rat, liver microsomes
[2] = Tmax in male Sprague-Dawley rat at 100 mg/kg/day, po measured at day 1; type: ADME, organism-based; conditions: in vivo, time 1 day

## O=C1CCN(c2cc(C(=O)N3CCC(CC4CCN(c5ccc(-c6cnc7[nH]cc(-c8cnn(CC(F)(F)F)c8)c7n6)cn5)CC4)CC3)ccc2Cl)C(=O)N1
[1]
  half-life at 0.75 h, 1 µM: 4.12 h
[2]
  Tmax: 7.5 h
